According to US20010056104A1, “Treatment of ocular hypertension and glaucoma” (priority 2000, published 2001):
pEC50: −log10 of the molar value. Like-named read-outs stand apart in the source and are kept apart here. One block for each compound: values may come before it.

Key:
[1] = tested on: prostaglandin receptor sites in bovine corpus luteal membranes; assay: Ligand binding assay in bovine corpus luteal membranes; details: for displacement of bound 3H-unoprostone isopropyl by unlabeled competing ligand: competition studies; for binding to PG receptor sites: in words
Description: (§1) In ligand binding studies, the specificity of labeled unoprostone isopropyl and the metabolite binding to prostaglandin receptor sites in bovine corpus luteal membranes was determined. This tissue expresses most of the PG receptors including an abundance of FP receptors. In signal transduction studies, the mobilization of intracellular calcium using Fluorescence Imaging technique in the primary culture of human ciliary muscle cells and cyclic AMP generation in rabbit iris-ciliary body was measured.
This method is well described in the literature. […] Free unbound ligands were separated by rapid filtration using a millipore filtration assembly. Membrane bound radioactivity retained by the filter was counted. It is important to define the following terms for appreciation of the binding data:
Total binding is defined as the amount bound in the absence of unlabeled ligand.
Specific binding is defined as the binding displaced by unlabeled ligand.
Non-specific binding is the binding not displaced by unlabeled ligand.

[2] = tested on: human ciliary muscle cells; assay: Intracellular calcium mobilization (Fura 2-AM) in human ciliary muscle cells; type: cell-based; details: for affinity for EP1 or FP or TP receptors: suggested by inability to mobilize intracellular calcium
Description: as §1
Human ciliary muscle cells at confluency were loaded with Fura 2-AM. Cells in a petri dish were put in a jacketed chamber mounted on the microscope platform. The chamber was maintained at 37° C. by thermostatically controlled water circulating through the chamber jacket. The cells were then exposed to the excitation wavelengths of 334 and 380 nm with an emission wavelength of 510 nm. Cells were perfused with HEPES buffer with or without test compounds. The intracellular calcium was visualized and photographed using Attofluor RatioVision software program and Zeiss fluorescence microscope.

[3] = molecular target: FP-receptor (Felis catus, UniProt A0ABI7XJ69); assay: Functional FP-receptor study, cat iris sphincter muscle contraction; type: cell-based; details: for pEC50: text restating Table I, read-out: concentration needed to stimulate the FP-receptor at 50% efficacy
Sequence of FP-receptor (A0ABI7XJ69 entry or part of it): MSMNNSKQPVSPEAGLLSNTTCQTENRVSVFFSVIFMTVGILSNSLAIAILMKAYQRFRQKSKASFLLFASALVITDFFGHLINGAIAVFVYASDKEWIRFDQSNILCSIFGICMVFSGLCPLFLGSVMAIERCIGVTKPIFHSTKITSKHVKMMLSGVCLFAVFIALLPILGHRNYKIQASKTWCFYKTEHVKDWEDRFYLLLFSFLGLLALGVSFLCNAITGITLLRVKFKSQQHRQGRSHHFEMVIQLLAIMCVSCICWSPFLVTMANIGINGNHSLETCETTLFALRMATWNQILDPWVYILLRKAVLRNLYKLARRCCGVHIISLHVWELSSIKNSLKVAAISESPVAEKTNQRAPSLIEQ
Description: Functional FP-receptor studies were performed using iris sphincter muscles from cat eyes. The eyes were either used directly after enucleation or stored in ice cold saline overnight. The iris sphincter muscles were prepared, cut in halfs, and mounted in thermostated (37° C.) tissue baths with oxygenated modified Kreb's solution containing indomethacin (2.8×10^−6 M), atropine (10^−7 M) and propranolol (10^−7 M). A resting tension of 150 mg was applied, and the contractile force was measured isometrically after cumulative dosing of test compounds. A manual or automated tissue bath system (Buxco, STC 400) was used for the experiments. For each tissue sample the maximal response was normalized to 100%. The mean response of two to four different preparations was calculated.
(§2) Concentration-effect curves were fitted to the data using the logistic sigmoid function.

[4] = molecular target: T1, EP1-receptor (Bos taurus, UniProt F1MUY4); assay: EP1-receptor activity, bovine iris sphincter muscle; type: cell-based
T1 sequence (F1MUY4 1-407): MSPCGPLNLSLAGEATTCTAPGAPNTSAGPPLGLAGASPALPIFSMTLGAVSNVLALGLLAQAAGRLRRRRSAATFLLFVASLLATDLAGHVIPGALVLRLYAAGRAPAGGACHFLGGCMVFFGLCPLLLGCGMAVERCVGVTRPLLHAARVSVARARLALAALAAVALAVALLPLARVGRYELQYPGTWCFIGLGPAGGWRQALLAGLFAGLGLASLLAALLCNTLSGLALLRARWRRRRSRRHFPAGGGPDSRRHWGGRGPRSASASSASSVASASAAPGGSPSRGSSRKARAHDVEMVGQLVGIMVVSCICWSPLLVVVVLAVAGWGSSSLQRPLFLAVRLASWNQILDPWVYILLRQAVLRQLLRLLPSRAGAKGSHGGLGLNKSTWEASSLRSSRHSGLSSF
Source text: Iris sphincter muscles from bovine eyes were used for studies of EP1-receptor responses. Freshly enucleated bovine eyes were transported on ice from a slaughterhouse.
as §2

[5] = molecular target: EP2-receptors (Cavia porcellus, UniProt A0A286XDB1); assay: EP2-receptor activity, guinea-pig ileum twitch inhibition; type: cell-based; details: for pEC50: smooth muscle bath, guinea-pig ileum
Sequence of EP2-receptors (A0A286XDB1 1-359): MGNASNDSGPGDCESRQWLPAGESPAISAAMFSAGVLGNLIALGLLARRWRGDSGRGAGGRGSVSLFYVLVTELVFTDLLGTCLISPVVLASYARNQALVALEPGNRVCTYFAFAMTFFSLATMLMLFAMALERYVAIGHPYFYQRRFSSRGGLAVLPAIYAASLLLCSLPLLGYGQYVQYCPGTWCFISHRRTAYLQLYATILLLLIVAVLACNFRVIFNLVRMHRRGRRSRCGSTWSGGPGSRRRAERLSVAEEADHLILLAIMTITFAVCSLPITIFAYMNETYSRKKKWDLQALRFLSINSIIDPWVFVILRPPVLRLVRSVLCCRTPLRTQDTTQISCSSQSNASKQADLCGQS
Source text: Segments of guinea-pig ileum were used to study the effect on EP2-receptors. Male guinea pigs were killed with a blow to the head and bled from the carotid arteries. Circular rings (2-3 mm wide) were taken from the ileum about 10 cm from the caecum, A resting tension of 1 g was applied and the preparation was stimulated by using a Gras S88 stimulator delivering trains of square pulses (frequency 7.5 Hz, pulse duration 0.1 msec, train duration 4 sec) to two parallel platinum electrodes in the bath. The voltage over the electrodes was approximately 20V, and the interval between trains was 100 seconds. The peak contractile force at each stimulation train was measured. Test compounds were added cumulatively, and the inhibitory effect on the muscle twitch was evaluated. […] Concentration-effect curves were fitted to the data using the logistic sigmoid function.

[6] = molecular target: T2, EP3-receptors (Cavia porcellus, UniProt A0A286XLZ9); assay: EP3-receptor activity, guinea-pig vas deferens; type: cell-based; details: for pEC50: smooth muscle bath, guinea-pig vas deferens
T2 sequence (A0A286XLZ9 with tags, fused parts or gaps): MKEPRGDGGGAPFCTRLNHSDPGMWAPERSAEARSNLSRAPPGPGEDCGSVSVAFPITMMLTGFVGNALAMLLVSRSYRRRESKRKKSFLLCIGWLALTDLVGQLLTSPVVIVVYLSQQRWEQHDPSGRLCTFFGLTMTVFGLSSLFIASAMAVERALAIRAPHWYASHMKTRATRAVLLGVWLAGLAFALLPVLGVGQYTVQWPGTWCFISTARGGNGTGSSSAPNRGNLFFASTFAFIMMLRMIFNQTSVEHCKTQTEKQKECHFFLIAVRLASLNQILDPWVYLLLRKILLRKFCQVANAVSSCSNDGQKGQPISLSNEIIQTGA
Description: Guinea-pig vas deferens was used to assess the effect on EP3-receptors. Tissue segments of about 10 mm were mounted in tissue baths and the experiments were performed essentially in the same way as described for the guinea-pig circular ileum. Concentration-effect curves were fitted to the data using the logistic sigmoid function.

[7] = treated for about three or more months; cited from earlier work
[8] = cynomolgus monkeys; cited from earlier work
[9] = molecular target: FP receptor (Homo sapiens, UniProt P43088); details: background statement; cited from earlier work
Sequence of FP receptor (P43088 whole entry): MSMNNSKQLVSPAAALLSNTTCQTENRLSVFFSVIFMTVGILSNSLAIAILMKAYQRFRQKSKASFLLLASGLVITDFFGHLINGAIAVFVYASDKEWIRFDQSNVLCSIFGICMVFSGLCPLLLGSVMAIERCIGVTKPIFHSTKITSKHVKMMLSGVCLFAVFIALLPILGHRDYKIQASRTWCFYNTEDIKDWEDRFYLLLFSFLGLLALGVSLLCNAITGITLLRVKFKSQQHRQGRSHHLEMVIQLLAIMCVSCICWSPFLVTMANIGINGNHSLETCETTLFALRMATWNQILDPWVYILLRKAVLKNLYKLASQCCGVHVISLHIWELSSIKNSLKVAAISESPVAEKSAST

[10] = tested on: PGF2α receptors; details: free acid form; contraction of cat iris sphincter; cited from earlier work
[11] = molecular target: T3, PGF2α receptors (Bos taurus, UniProt P37289); details: free acid form; bovine corpus luteum; cited from earlier work
T3 construct: host or cells: bovine corpus luteum
T3 sequence (P37289 whole entry): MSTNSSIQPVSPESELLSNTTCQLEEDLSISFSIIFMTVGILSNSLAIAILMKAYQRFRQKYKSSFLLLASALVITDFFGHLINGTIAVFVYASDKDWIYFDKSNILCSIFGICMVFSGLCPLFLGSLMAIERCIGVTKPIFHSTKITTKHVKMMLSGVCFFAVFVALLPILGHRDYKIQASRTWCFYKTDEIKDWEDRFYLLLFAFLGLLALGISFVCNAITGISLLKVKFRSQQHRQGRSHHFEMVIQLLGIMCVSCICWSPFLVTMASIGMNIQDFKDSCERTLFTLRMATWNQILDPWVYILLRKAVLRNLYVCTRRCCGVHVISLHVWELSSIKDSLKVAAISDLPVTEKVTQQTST

[12] = long-term monkey trial, preliminary published results; cited from earlier work
[13] = competing ligand PGF2α 0.062 μM
[14] = radioligand conc. 8.0 nM (3H-PGF2α)
[15] = concentrations ranging from 10-1000 nM
[16] = competing ligand unoprostone isopropyl 2.5 μM
[17] = competing ligand unoprostone isopropyl 5.0 μM
[18] = competing ligand unoprostone isopropyl 8.0 μM
[19] = competing ligand unoprostone isopropyl 16.0 μM

displacement of bound 3H-unoprostone isopropyl by unlabeled competing ligand [1]: did not displace
Compound: 17-Phenyl trinor PGE1

Compound: O=C(O)CCC/C=C\C[C@@H]1[C@@H](/C=C/[C@@H](O)COc2cccc(C(F)(F)F)c2)[C@H](O)C[C@@H]1O (racemic) [Fluprostenol]
mobilization of intracellular calcium ([2]; FP receptor agonist control, concentration not given): mobilized calcium

potency on the FP receptor relative to latanoprost acid ([3]; from Table I EC50 values): at least ten times less potent | pEC50 [3]: 6.59 | activity on EP1 receptor ([4]; in words): virtually no activity | pEC50 ([4]; read-out: EC50 EP1, smooth muscle bath, bovine iris sphincter): 4.55 | activity on EP2 receptor ([5]; in words): virtually no activity | pEC50 [5]: < 4.00 | activity on EP3 receptor ([6]; in words): virtually no activity | pEC50 [6]: < 4.00
Compound: O=C(O)CCCC=CCC1C(O)CC(O)C1CCC(=O)CCc1ccccc1 (stereo not shown) [15-keto Latanoprost Acid]

displacement of bound 3H-unoprostone isopropyl by unlabeled competing ligand [1]: did not displace
Compound: O=C(O)CCCCCCC1C(=O)NC(=O)N1CCC(O)C1CCCCC1 (stereo not shown) [BW245C]

displacement of bound 3H-unoprostone isopropyl by unlabeled competing ligand [1]: did not displace
Compound: CCCC1([C@H](O)C/C=C/[C@H]2[C@H](O)CC(=O)[C@@H]2CCCCCCC(=O)OC)CCC1 [Butaprost]

pEC50 [3]: 8.00 | pEC50 [5]: 3.28 | pEC50 [6]: 4.55
Compound: O=C(O)CCC/C=C\C[C@@H]1[C@@H](CC[C@@H](O)CCc2ccccc2)[C@H](O)C[C@@H]1O [Latanoprost Acid]

receptor selectivity (FP vs other prostaglandin receptors) ([3]; from Table I): selective agonist for the FP receptor
Compound: CC(C)OC(=O)CCC/C=C\C[C@@H]1[C@@H](CC[C@@H](O)CCc2ccccc2)[C@H](O)C[C@@H]1O [Latanoprost, 13,14-dihydro-17-phenyl-18,19,20-trinor PGF2α isopropyl ester]
human patients with brown pigmentation of the iris [7]: ≥ 10% | iridial pigmentation [8]: induced increased iridial pigmentation | specific binding affinity for the FP receptor [9]: substantial specific binding affinity

Compound: CCCCCC(O)C=CC1C(O)CC(=O)C1CC=CCCCC(=O)OC(C)C (stereo not shown) [PGE2-IE]
iridial pigmentation [8]: induced increased iridial pigmentation

Compound: CCCCC[C@H](O)/C=C/[C@@H]1[C@@H](C/C=C\CCCC(=O)OC(C)C)[C@@H](O)C[C@H]1O [PGF2α-IE]
iridial pigmentation [8]: induced increased iridial pigmentation

specific binding to bovine corpus luteal membranes (in words) [1]: bound specifically | Specific Binding (3H-PGF2α) [1, 13]: 0.07 fmoles/mg Protein | Total 3H-PGF2α binding [1, 13]: 0.56 fmol/mg protein | Specific Binding (3H-PGF2α) ([1]; competing ligand PGF2α 0.25 μM): 0.15 fmoles/mg Protein | Total 3H-PGF2α binding ([1]; competing ligand PGF2α 0.25 μM): 0.56 fmol/mg protein | Specific Binding (3H-PGF2α) ([1]; competing ligand PGF2α 0.5 μM): 0.25 fmoles/mg Protein | Total 3H-PGF2α binding ([1]; competing ligand PGF2α 0.5 μM): 0.56 fmol/mg protein | Specific Binding (3H-PGF2α) ([1]; competing ligand PGF2α 8.0 μM): 0.42 fmoles/mg Protein | Total 3H-PGF2α binding ([1]; competing ligand PGF2α 8.0 μM): 0.56 fmol/mg protein | displacement of bound 3H-unoprostone isopropyl by unlabeled competing ligand [1]: did not displace | Specific Binding ([1]; radioligand conc. 2.0 nM): 120.0 ± 15.0 fmoles/mg protein | Total Binding ([1]; radioligand conc. 2.0 nM): 150.0 ± 16.0 fmoles/mg protein | Total Binding ([1]; radioligand conc. 4.0 nM): 325.0 ± 25.0 fmoles/mg protein | Specific Binding [1, 14]: 423.0 ± 40.0 fmoles/mg protein | Total Binding [1, 14]: 505.0 ± 75.0 fmoles/mg protein
Compound: CCCCC[C@H](O)/C=C/[C@@H]1[C@@H](C/C=C\CCCC(=O)O)[C@@H](O)C[C@H]1O [PGF2α]

displacement of bound 3H-unoprostone isopropyl by unlabeled competing ligand [1]: did not displace
Compound: CCCCC[C@H](O)/C=C/[C@@H]1[C@@H](C/C=C\CCCC(=O)O)[C@H]2CO[C@@H]1C2 [U46619]

displacement of bound 3H-unoprostone isopropyl by unlabeled competing ligand [1]: did not displace
Compound: CC#CCC(C)[C@H](O)/C=C/[C@@H]1[C@H]2C/C(=C/CCCC(=O)O)C[C@H]2C[C@H]1O (stereo partly shown) [iloprost]

binding to PG receptor sites [1]: does not bind
Compound: CCCCCCCC(=O)CC[C@@H]1[C@@H](C/C=C\CCCC(=O)O)[C@@H](O)C[C@H]1O [metabolite]
mobilization of intracellular calcium [2, 15]: did not mobilize | affinity for EP1 or FP or TP receptors [2]: no affinity | agonistic activity to PGF2α receptors relative to PGF2α [10]: 1/1600 | binding inhibitory activity relative to PGF2α [11]: 1/280

specific binding to bovine corpus luteal membranes (in words) [1]: no specific binding sites | Total Binding ([1]; at 5 minutes): 21.0 fmoles/mg protein | Specific Binding of 3H-unoprostone isopropyl [1, 16]: 0 | Total 3H-unoprostone isopropyl binding [1, 16]: 7.0 ƒmoles/mg protein | Specific Binding of 3H-unoprostone isopropyl [1, 17]: 0 | Total 3H-unoprostone isopropyl binding [1, 17]: 6.5 ƒmoles/mg protein | Specific Binding of 3H-unoprostone isopropyl [1, 18]: 0 | Total 3H-unoprostone isopropyl binding [1, 18]: 6.7 ƒmoles/mg protein | Specific Binding of 3H-unoprostone isopropyl [1, 19]: 0 | Total 3H-unoprostone isopropyl binding [1, 19]: 7.6 ƒmoles/mg protein | displacement of bound 3H-unoprostone isopropyl by unlabeled competing ligand [1]: did not displace | binding to DP, EP1, EP2, EP3, IP and TP receptor sites ([1]; concluded from competition studies): does not bind | binding to PG receptor sites [1]: does not bind | specific binding to bovine corpus luteal membranes (in words) ([1]; listed as 3H-unoprostone isopropyl): no specific binding | Total Binding ([1]; membrane protein conc. 50 μg): 13.0 ± 2.0 (3) fmoles/mg protein | Total Binding ([1]; membrane protein conc. 100 μg): 23.0 ± 6.0 (3) fmoles/mg protein | Total Binding ([1]; membrane protein conc. 200 μg): 32.0 ± 8.0 (3) fmoles/mg protein | Specific Binding ([1]; radioligand conc. 8.0 nM): 0 fmoles/mg protein | Total Binding ([1]; radioligand conc. 8.0 nM): 19.4 ± 2.0 ƒmoles/mg protein | Specific Binding ([1]; radioligand conc. 16.0 nM): 0 fmoles/mg protein | Total Binding ([1]; radioligand conc. 16.0 nM): 25.5 ± 4.0 ƒmoles/mg protein | Specific Binding ([1]; radioligand conc. 32.0 nM): 0 fmoles/mg protein | Total Binding ([1]; radioligand conc. 32.0 nM): 40.0 ± 7.0 ƒmoles/mg protein | change of total binding with time ([1]; up to 60 minutes): did not increase with time
Compound: CCCCCCCC(=O)CC[C@@H]1[C@@H](C/C=C\CCCC(=O)OC(C)C)[C@@H](O)C[C@H]1O [unoprostone isopropyl, 13,14-dihydro-15-keto-20-ethyl PGF2α isopropyl ester]
mobilization of intracellular calcium [2, 15]: did not mobilize | affinity for EP1 or FP or TP receptors [2]: no affinity | iridic pigmentation [12]: no iridic pigmentation
